From patent US8450308B2 (Vitae Pharmaceuticals, Inc., priority 2008, dated 2013)

What was measured:
[1] = molecular target: T1, truncated human beta-secretase (residues 1-458, His6-tagged at the C-terminus) (Homo sapiens, UniProt P56817); test: BACE fluorescence quench assay; assay type: biochemical; details: in vitro enzyme activity, BACE fluorescence assay, pH 4.5; read-out: IC50
T1 construct: truncated human beta-secretase (residues 1-458, His6-tagged at the C-terminus); His6 (C); made in house; host or cells: insect cells D. melanogaster S2 (baculovirus expression system (so in the source))
T1 sequence (P56817 22-458): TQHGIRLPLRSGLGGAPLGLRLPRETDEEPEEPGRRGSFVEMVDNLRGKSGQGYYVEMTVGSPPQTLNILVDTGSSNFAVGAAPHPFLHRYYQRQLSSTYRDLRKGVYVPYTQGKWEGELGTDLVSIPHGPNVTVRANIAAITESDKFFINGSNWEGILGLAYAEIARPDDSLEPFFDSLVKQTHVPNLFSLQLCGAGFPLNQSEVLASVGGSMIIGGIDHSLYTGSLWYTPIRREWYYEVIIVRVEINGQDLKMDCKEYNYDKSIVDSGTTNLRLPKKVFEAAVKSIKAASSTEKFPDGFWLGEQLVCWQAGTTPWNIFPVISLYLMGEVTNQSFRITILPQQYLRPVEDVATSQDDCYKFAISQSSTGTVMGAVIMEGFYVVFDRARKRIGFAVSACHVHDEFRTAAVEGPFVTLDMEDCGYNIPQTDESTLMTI

[2] = BACE cell assay: soluble Amyloid Beta 1-40 (Aβ 1-40) in culture media of H4-APPsw cells; assay type: cell-based; details: in vitro cell activity, H4-APPsw cells, secreted Aβ 1-40, overnight treatment; read-out: IC50

| SMILES | IC50 [1] | IC50 [2] |
| --- | --- | --- |
| CN1C(=O)C2(CC3(CCCOC3)Oc3ccc(-c4cc(F)cc(Cl)c4)cc32)N=C1N (stereo not shown) [Compound 286] | 100 to 500 nM | 100 to 500 nM |
| CN1O[C@@]2(C[C@@H](C3CCOc4ccccc43)Oc3ccc(-c4cccc(C#N)c4)cc32)N=C1N (stereo partly shown) [Compound 279] | 100 to 500 nM | 1000 to 5000 nM |
| COc1cc(OC)cc(-c2ccc3c(c2)[C@]2(C[C@]4(CCCOC4)O3)N=C(N)N(C)C2=O)c1 [Compound 283] | 100 to 500 nM | 100 to 500 nM |
| CN1O[C@]2(C[C@@H]([C@@H]3CCCOC3)Oc3ccc(-c4cc(F)cc(F)c4)cc32)N=C1N (racemic) [Compound 323, (±)-(2S,4S)-6-(3,5-difluorophenyl)-2′-methyl-2-((R)-tetrahydro-2H-pyran-3-yl)-2′H-spiro[chroman-4,5′-[1,2,4]oxadiazol]-3′-amine] | 100 to 500 nM | 1000 to 5000 nM |
| CN1OC2(CC(C3CCOC(C)(C)C3)Oc3ccc(-c4cccc(Br)c4)cc32)N=C1N (stereo not shown) [Compound 294] | 100 to 500 nM | 1000 to 5000 nM |

Further lines, results first:

| IC50 [1] | IC50 [2] | SMILES |
| --- | --- | --- |
| 500 to 1000 nM | 10000 to 50000 nM | CN1OC2(CC3(CCN(c4ncccn4)CC3)Oc3ccc(-c4cccc(C#N)c4)cc32)N=C1N (stereo not shown) [Compound 353] |
| 100 to 500 nM | 1000 to 5000 nM | CN1OC2(CC3(CCCc4ccccc4C3)Oc3ccc(C#CC(C)(C)C)cc32)N=C1N (stereo not shown) [Compound 308] |
| 500 to 1000 nM | 1000 to 5000 nM | CN1OC2(CC3(CCCc4ccccc4C3)Oc3ccc(-c4ccc5cc[nH]c5c4)cc32)N=C1N (stereo not shown) [Compound 352] |
